{
  "source": "PubChem BioAssay (NCI)",
  "assay_in_all_cases": "inhibition of tumour cell growth, NCI panel, 48 h",
  "key": {"[1]": {"system": "HCT-15 colon"}, "[2]": {"system": "HL-60(TB) leukemia"}, "[3]": {"system": "K-562 leukemia"}, "[4]": {"system": "MALME-3M melanoma"}, "[5]": {"system": "NCI-H23 lung"}, "[6]": {"system": "NCI-H522 lung"}, "[7]": {"system": "NCI/ADR-RES ovarian"}, "[8]": {"system": "SF-539 CNS"}, "[9]": {"system": "SK-MEL-2 melanoma"}, "[10]": {"system": "UACC-257 melanoma"}},
  "note": "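These data come from cells grown in 96-well plates and exposed to compound for 48 hours at five concentrations. GI50 is the concentration that inhibits growth by half. TGI is the concentration that stops growth completely.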",
  "data": [
    {"smiles": "COc1cc(CNc2oc(-c3ccccc3)c(-c3ccccc3)c2C#N)cc(CN2CCN(C)CC2)c1O", "values": [
      {"measurement": "GI50", "setting": "[1]", "value": 1.32, "unit": "µM"},
      {"measurement": "TGI", "setting": "[1]", "value": 2.77, "unit": "µM"},
      {"measurement": "GI50", "setting": "[2]", "value": 1.79, "unit": "µM"},
      {"measurement": "TGI", "setting": "[2]", "value": 4.19, "unit": "µM"},
      {"measurement": "GI50", "setting": "[3]", "value": 1.51, "unit": "µM"},
      {"measurement": "TGI", "setting": "[3]", "value": 4.16, "unit": "µM"},
      {"measurement": "GI50", "setting": "[4]", "value": 1.85, "unit": "µM"},
      {"measurement": "TGI", "setting": "[4]", "value": 3.41, "unit": "µM"},
      {"measurement": "GI50", "setting": "[5]", "value": 1.86, "unit": "µM"},
      {"measurement": "TGI", "setting": "[5]", "value": 3.79, "unit": "µM"},
      {"measurement": "GI50", "setting": "[6]", "value": 1.87, "unit": "µM"},
      {"measurement": "TGI", "setting": "[6]", "value": 3.95, "unit": "µM"},
      {"measurement": "GI50", "setting": "[7]", "value": 2.1, "unit": "µM"},
      {"measurement": "TGI", "setting": "[7]", "value": 4.75, "unit": "µM"},
      {"measurement": "GI50", "setting": "[8]", "value": 1.72, "unit": "µM"},
      {"measurement": "TGI", "setting": "[8]", "value": 3.16, "unit": "µM"},
      {"measurement": "GI50", "setting": "[9]", "value": 2.17, "unit": "µM"},
      {"measurement": "TGI", "setting": "[9]", "value": 4.56, "unit": "µM"},
      {"measurement": "GI50", "setting": "[10]", "value": 1.84, "unit": "µM"},
      {"measurement": "TGI", "setting": "[10]", "value": 3.71, "unit": "µM"}
    ]},
    {"smiles": "COc1ccc(-c2cc(=O)c3c(O)c(OC)c(OC)c(OC)c3o2)cc1", "values": [
      {"measurement": "TGI", "setting": "[1]", "value": "> 100", "unit": "µM"},
      {"measurement": "TGI", "setting": "[2]", "value": "> 100", "unit": "µM"},
      {"measurement": "TGI", "setting": "[3]", "value": "> 100", "unit": "µM"},
      {"measurement": "TGI", "setting": "[4]", "value": "> 100", "unit": "µM"},
      {"measurement": "TGI", "setting": "[5]", "value": "> 74.7", "unit": "µM"},
      {"measurement": "TGI", "setting": "[6]", "value": "> 100", "unit": "µM"},
      {"measurement": "TGI", "setting": "[7]", "value": "> 100", "unit": "µM"},
      {"measurement": "TGI", "setting": "[8]", "value": "> 100", "unit": "µM"},
      {"measurement": "TGI", "setting": "[9]", "value": "> 81.3", "unit": "µM"},
      {"measurement": "TGI", "setting": "[10]", "value": "> 100", "unit": "µM"}
    ]},
    {"smiles": "CC[C@H](C)[C@H](NC(=O)c1cccn1C)C(=O)N(C)[C@H](C[C@@H](OC(C)=O)c1nc(C(=O)N[C@@H](Cc2ccccc2)C[C@H](C)C(=O)OC)cs1)C(C)C", "values": [
      {"measurement": "GI50", "setting": "[1]", "value": 0.337, "unit": "µM"},
      {"measurement": "TGI", "setting": "[1]", "value": "> 33.3", "unit": "µM"},
      {"measurement": "GI50", "setting": "[2]", "value": 0.076, "unit": "µM"},
      {"measurement": "TGI", "setting": "[2]", "value": 0.208, "unit": "µM"},
      {"measurement": "GI50", "setting": "[3]", "value": 0.177, "unit": "µM"},
      {"measurement": "TGI", "setting": "[3]", "value": "> 33.3", "unit": "µM"},
      {"measurement": "GI50", "setting": "[4]", "value": 11.1, "unit": "µM"},
      {"measurement": "TGI", "setting": "[4]", "value": "> 33.3", "unit": "µM"},
      {"measurement": "GI50", "setting": "[5]", "value": 0.216, "unit": "µM"},
      {"measurement": "TGI", "setting": "[5]", "value": "> 33.3", "unit": "µM"},
      {"measurement": "GI50", "setting": "[6]", "value": 0.0661, "unit": "µM"},
      {"measurement": "TGI", "setting": "[6]", "value": 2.08, "unit": "µM"},
      {"measurement": "GI50", "setting": "[7]", "value": 1.2, "unit": "µM"},
      {"measurement": "TGI", "setting": "[7]", "value": "> 33.3", "unit": "µM"},
      {"measurement": "GI50", "setting": "[8]", "value": 0.203, "unit": "µM"},
      {"measurement": "TGI", "setting": "[8]", "value": 1.22, "unit": "µM"},
      {"measurement": "GI50", "setting": "[9]", "value": 0.347, "unit": "µM"},
      {"measurement": "TGI", "setting": "[9]", "value": "> 33.3", "unit": "µM"},
      {"measurement": "GI50", "setting": "[10]", "value": 18.2, "unit": "µM"},
      {"measurement": "TGI", "setting": "[10]", "value": "> 33.3", "unit": "µM"}
    ]},
    {"smiles": "Cc1cc(O)c(-c2ccc([C@@H](C)CN(C)C)cc2)c2c1[nH]c(=O)c1sccc12", "values": [
      {"measurement": "GI50", "setting": "[1]", "value": 1.42, "unit": "µM"},
      {"measurement": "TGI", "setting": "[1]", "value": 31.3, "unit": "µM"},
      {"measurement": "GI50", "setting": "[2]", "value": 0.453, "unit": "µM"},
      {"measurement": "TGI", "setting": "[2]", "value": 7.38, "unit": "µM"},
      {"measurement": "GI50", "setting": "[3]", "value": 0.482, "unit": "µM"},
      {"measurement": "TGI", "setting": "[3]", "value": "> 60.5", "unit": "µM"},
      {"measurement": "GI50", "setting": "[4]", "value": 1.53, "unit": "µM"},
      {"measurement": "TGI", "setting": "[4]", "value": 4.59, "unit": "µM"},
      {"measurement": "GI50", "setting": "[5]", "value": 1.06, "unit": "µM"},
      {"measurement": "TGI", "setting": "[5]", "value": 6.41, "unit": "µM"},
      {"measurement": "GI50", "setting": "[6]", "value": 0.436, "unit": "µM"},
      {"measurement": "TGI", "setting": "[6]", "value": 2.9, "unit": "µM"},
      {"measurement": "GI50", "setting": "[7]", "value": 2.72, "unit": "µM"},
      {"measurement": "TGI", "setting": "[7]", "value": 24.1, "unit": "µM"},
      {"measurement": "GI50", "setting": "[8]", "value": 0.219, "unit": "µM"},
      {"measurement": "TGI", "setting": "[8]", "value": 1.97, "unit": "µM"},
      {"measurement": "GI50", "setting": "[9]", "value": 0.679, "unit": "µM"},
      {"measurement": "TGI", "setting": "[9]", "value": 3.04, "unit": "µM"},
      {"measurement": "GI50", "setting": "[10]", "value": 1.76, "unit": "µM"},
      {"measurement": "TGI", "setting": "[10]", "value": 6.86, "unit": "µM"}
    ]},
    {"smiles": "N#Cc1cccc(C2C3=C(COC3=O)N(CCO)c3cc4c(cc32)OCO4)c1", "note": "(stereo unspecified)", "values": [
      {"measurement": "GI50", "setting": "[1]", "value": 0.971, "unit": "µM"},
      {"measurement": "TGI", "setting": "[1]", "value": "> 50", "unit": "µM"},
      {"measurement": "GI50", "setting": "[2]", "value": 1.32, "unit": "µM"},
      {"measurement": "TGI", "setting": "[2]", "value": 4.36, "unit": "µM"},
      {"measurement": "GI50", "setting": "[3]", "value": 0.294, "unit": "µM"},
      {"measurement": "TGI", "setting": "[3]", "value": "> 50", "unit": "µM"},
      {"measurement": "GI50", "setting": "[5]", "value": 3.58, "unit": "µM"},
      {"measurement": "TGI", "setting": "[5]", "value": "> 50", "unit": "µM"},
      {"measurement": "GI50", "setting": "[6]", "value": 0.561, "unit": "µM"},
      {"measurement": "TGI", "setting": "[6]", "value": 4.7, "unit": "µM"},
      {"measurement": "GI50", "setting": "[7]", "value": 3.46, "unit": "µM"},
      {"measurement": "TGI", "setting": "[7]", "value": "> 50", "unit": "µM"},
      {"measurement": "GI50", "setting": "[8]", "value": 1.53, "unit": "µM"},
      {"measurement": "TGI", "setting": "[8]", "value": 8.52, "unit": "µM"},
      {"measurement": "GI50", "setting": "[10]", "value": "> 50", "unit": "µM"},
      {"measurement": "TGI", "setting": "[10]", "value": "> 50", "unit": "µM"}
    ]},
    {"smiles": "CC(C)(C)OC(=O)Nc1ccc2c(c1)C(NC(=O)Nc1cccc(C#N)c1)CC(C)(C)O2", "note": "(stereo unspecified)", "values": [
      {"measurement": "GI50", "setting": "[1]", "value": 1.89, "unit": "µM"},
      {"measurement": "TGI", "setting": "[1]", "value": "> 51.3", "unit": "µM"},
      {"measurement": "GI50", "setting": "[2]", "value": 2.39, "unit": "µM"},
      {"measurement": "TGI", "setting": "[2]", "value": 22.3, "unit": "µM"},
      {"measurement": "GI50", "setting": "[3]", "value": 2.12, "unit": "µM"},
      {"measurement": "TGI", "setting": "[3]", "value": "> 100", "unit": "µM"},
      {"measurement": "GI50", "setting": "[4]", "value": 3.69, "unit": "µM"},
      {"measurement": "TGI", "setting": "[4]", "value": "> 68", "unit": "µM"},
      {"measurement": "GI50", "setting": "[5]", "value": 1.09, "unit": "µM"},
      {"measurement": "TGI", "setting": "[5]", "value": "> 81.3", "unit": "µM"},
      {"measurement": "GI50", "setting": "[6]", "value": 3.61, "unit": "µM"},
      {"measurement": "TGI", "setting": "[6]", "value": 54.7, "unit": "µM"},
      {"measurement": "GI50", "setting": "[7]", "value": 2.78, "unit": "µM"},
      {"measurement": "TGI", "setting": "[7]", "value": "> 64.6", "unit": "µM"},
      {"measurement": "GI50", "setting": "[8]", "value": 5.19, "unit": "µM"},
      {"measurement": "TGI", "setting": "[8]", "value": 44.1, "unit": "µM"},
      {"measurement": "GI50", "setting": "[9]", "value": 6.4, "unit": "µM"},
      {"measurement": "TGI", "setting": "[9]", "value": 31.4, "unit": "µM"},
      {"measurement": "GI50", "setting": "[10]", "value": 1.07, "unit": "µM"},
      {"measurement": "TGI", "setting": "[10]", "value": 6.93, "unit": "µM"}
    ]}
  ]
}
